# Reference: US9737073B2, “Herbicidal weed control from combinations of fluroxypyr and ALS inhibitors” (Dow AgroSciences LLC, priority 2014, dated 2017)
# Columns and labels:
# Type in all cases: in vivo
# [1] = system: Abutilon theophrasti (velvetleaf, ABUTH); assay: Postemergence herbicidal weed control, fluroxypyr-meptyl and chlorimuron-ethyl, field trials (Table 3)
# Protocol: (§1) Seeds of the desired test plant species were planted in a peat-based potting soil, Metro-Mix 360® in plastic pots with a surface area of 128 square centimeters (cm^2). Metro-Mix 360® consists of formulated Canadian sphagnum peat moss, coarse perlite, bark ash, a starter nutrient charge (with gypsum), a slow-release nitrogen and dolomitic limestone. The plants were grown for 7-19 days in a greenhouse with an approximate 14-hour (h) photoperiod which was maintained at about 29° C. during the day and 26° C. during the night. Nutrients and water were added on a regular basis and supplemental lighting was provided with overhead metal halide 1000-Watt lamps as necessary. The plants were treated with postemergence foliar applications when they reached the third to fourth true leaf stage. All treatments were applied using a randomized complete block trial design, with 4 replications per treatment.
# (§2) Treatments consisted of the compounds as listed in Tables 1 to 4, each compound applied alone and in combination. Commercially formulated products of fluroxypyr-meptyl (STARANE™, 333 grams acid equivalent per liter (g ae/L) EC), diclosulam (SPIDER® 84WG), cloransulam-methyl (FIRSTRATE™ 84WG), chlorimuron-ethyl (CLASSIC® 25WG) and thifensulfuron-methyl (HARMONY® 50SG). Formulated amounts of fluroxypyr-meptyl, diclosulam, cloransulam-methyl, chlorimuron-ethyl and thifensulfuron-methyl were placed in 60 milliliter (mL) glass vials and dissolved in a volume of 30 or 60 mL of a water solution containing Agri-dex crop oil concentrate in a 1% volume per volume (v/v) ratio. Compound requirements are based upon either a 30- or a 60-mL application volume at a rate of 200 liters per hectare (L/ha). Spray solutions of the mixtures were prepared by adding the stock solutions to the appropriate amount of dilution solution to form either a 30- or a 60-mL spray solution with active ingredients in single and two-way combinations. Formulated compounds were applied to the plant material with an overhead Generation III Research Sprayer manufactured by DeVries Manufacturing in Hollandale, Minn., USA. The track sprayer was equipped with an 8003E nozzle calibrated to deliver 200 L/ha at a spray height of 18 inches (43 centimeters (cm)) above average plant canopy.
# (§3) The treated plants and untreated control plants were placed in a greenhouse as described above and watered by sub-irrigation to prevent wash-off of the test compounds.
# (§4) Treatments were rated at 7 to 21 days after application (DAA) as compared to the untreated control plants. Visual weed control was scored on a scale of 0 to 100 percent where 0 corresponds to no injury and 100 corresponds to complete kill.
# (§5) Field trials were conducted using standard herbicide small plot research methodology. Plots varied from 3×3.3 meter (m) to 4.5×10 m (width×length) with 4 replicates per treatment. The crops used in the field trials were grown using normal cultural practices for land preparation, fertilization, seeding and maintenance to ensure good growth of the crop and the weeds.
# (§6) All treatments in the field trials were applied using either pressurized air or carbon dioxide (CO2) backpack or bicycle sprayers calibrated to apply 100-187 L/ha spray volume. Flat Fan spray nozzles were used in all trials, with water as the diluent applied at 275-300 kilopascals (kPa). Weed sizes at application ranged from 10 to 40 cm tall. Commercially available products of fluroxypyr-meptyl (STARANE™, 180 and 333 g ae/L EC), diclosulam (SPIDER® 84WG), and thifensulfuron-methyl (HARMONY® 75WG) were mixed in water at appropriately formulated product rates to achieve the desired rates based on a unit area of application (hectare) to achieve the desired rates as shown. No adjuvants were tank-mixed with any treatments applied in the field trials. Treatments were rated at 14-26 days after application as compared to the untreated control plants. […]
# [2] = system: Amaranthus rudis Sauer (common waterhemp, AMATA); assay: as above
# Protocol: as §1, §2, §3, §4, §5, §6
# [3] = system: Abutilon theophrasti (velvetleaf, ABUTH); assay: Postemergence herbicidal weed control, fluroxypyr-meptyl and diclosulam, greenhouse trials (Table 1)
# Protocol: as §1, §2, §3, §4
# (§7) Colby's equation was used to determine the herbicidal effects expected from the mixtures (Colby, S. R. Calculation of the synergistic and antagonistic response of herbicide combinations. Weeds 196715, 20-22). A t-test (alpha=0.05) between Colby predictions and observed combinations was used to test for significant differences indicating synergy or antagonism. The results presented in the Tables were significant according to the described criteria.
# (§8) The following equation was used to calculate the expected activity of mixtures containing two active ingredients, A and B: Expected=A+B−(A×B/100) • A=observed efficacy of active ingredient A at the same concentration as used in the mixture; • B=observed efficacy of active ingredient B at the same concentration as used in the mixture.
# [4] = system: Amaranthus rudis Sauer (common waterhemp, AMATA); assay: as above
# Protocol: as §1, §2, §3, §4, §7, §8
# [5] = system: Chenopodium album (common lambsquarters, CHEAL); assay: as above
# Protocol: as §1, §2, §3, §4, §7, §8
# [6] = system: Commelina benghalensis (tropical spiderwort, COMBE); assay: as above
# Protocol: as §5
# (§9) All treatments in the field trials were applied using either pressurized air or carbon dioxide (CO2) backpack or bicycle sprayers calibrated to apply 100-187 L/ha spray volume. Flat Fan spray nozzles were used in all trials, with water as the diluent applied at 275-300 kilopascals (kPa). Weed sizes at application ranged from 10 to 40 cm tall. Commercially available products of fluroxypyr-meptyl (STARANE™, 180 and 333 g ae/L EC), diclosulam (SPIDER® 84WG), and thifensulfuron-methyl (HARMONY® 75WG) were mixed in water at appropriately formulated product rates to achieve the desired rates based on a unit area of application (hectare) to achieve the desired rates as shown. No adjuvants were tank-mixed with any treatments applied in the field trials. Treatments were rated at 14-26 days after application as compared to the untreated control plants. Visual weed control was scored on a scale of 0 to 100 percent where 0 corresponds to no injury and 100 corresponds to complete kill.
# (§10) The treated plots and control plots were rated blind at various intervals after application. Ratings were reported on a Percent (%) Visual Control basis, where 0 corresponds to no visual effect/weed control and 100 corresponds to complete kill of the target weeds.
# as §7, §8
# [7] = system: Sida cordifolia L. (heartleaf sida, SIDCO); assay: as above; conditions: 14DAA1, 25.2 g ai/ha
# Protocol: as §1
# Treatments consisted of the compounds as listed in Tables 1 to 4, each compound applied alone and in combination. […]
# Treatments were rated at 7 to 21 days after application (DAA) as compared to the untreated control plants. Visual weed control was scored on a scale of 0 to 100 percent where 0 corresponds to no injury and 100 corresponds to complete kill. […]
# [8] = system: Amaranthus retroflexus L. (redroot pigweed, AMARE); assay: Postemergence herbicidal weed control, fluroxypyr-meptyl and thifensulfuron-methyl, field trials (Table 4); conditions: 21DAA1, 13.0 g ai/ha
# Protocol: as §5, §9, §10, §7, §8
# [9] = system: Chenopodium album (common lambsquarters, CHEAL); assay: as above; conditions: 21DAA1, 13.0 g ai/ha
# Protocol: as §5, §9, §10, §7, §8
# [10] = system: Polygonum convolvulus L. (wild buckwheat, POLCO); assay: as above; conditions: 21DAA1, 13.0 g ai/ha
# Protocol: as §5, §9, §10, §7, §8
# [11] = system: Abutilon theophrasti (velvetleaf, ABUTH); assay: as above
# Protocol: as §1, §2, §3, §4, §5
# (§11) All treatments in the field trials were applied using either pressurized air or carbon dioxide (CO2) backpack or bicycle sprayers calibrated to apply 100-187 L/ha spray volume. Flat Fan spray nozzles were used in all trials, with water as the diluent applied at 275-300 kilopascals (kPa). Weed sizes at application ranged from 10 to 40 cm tall. […]
# [12] = system: Amaranthus palmeri S. Wats. (Palmer amaranth, AMAPA); assay: as above; conditions: 7DAA1, 2.2 g ai/ha
# Protocol: as §1, §2, §3, §4, §5, §11
# [13] = system: Abutilon theophrasti (velvetleaf, ABUTH); assay: Postemergence herbicidal weed control, fluroxypyr-meptyl and cloransulam-methyl, field trials (Table 2)
# Protocol: as §1, §2, §3, §4, §5, §6
# [14] = system: Amaranthus rudis Sauer (common waterhemp, AMATA); assay: as above
# Protocol: as §1, §2, §3, §4, §5, §6
# [15] = system: Chenopodium album (common lambsquarters, CHEAL); assay: as above
# Protocol: as §1, §2, §3, §4, §5
# as §9, with “Treatments were rated at 14-26 days after application as compared to the untreated control plants.” left out, “kill. […]” for “kill.”
smiles,measurement,setting,value
"CCOC(=O)c1ccccc1S(=O)(=O)NC(=O)Nc1nc(Cl)cc(OC)n1 [Chlorimuron-ethyl, ethyl 2-[[[[(4-chloro-6-methoxy-2-pyrimidinyl)amino]carbonyl]amino]-sulfonyl]benzoate]",Chlorimuron-ethyl Mean % weed control,"[1]; 14DAA1, 1.1 g ai/ha",56.3%
same,Chlorimuron-ethyl Mean % weed control,"[1]; 14DAA1, 2.2 g ai/ha",62.5%
same,Chlorimuron-ethyl Mean % weed control,"[2]; 7DAA1, 8.8 g ai/ha",41.3%
same,Chlorimuron-ethyl Mean % weed control,"[2]; 14DAA1, 8.8 g ai/ha",28.8%
"CCOc1nc(F)cc2nc(S(=O)(=O)Nc3c(Cl)cccc3Cl)nn12 [Diclosulam, N-(2,6-dichlorophenyl)-5-ethoxy-7-fluoro[1,2,4]triazolo[1,5-c]pyrimidine-2-sulfonamide]",Diclosulam Mean % weed control,"[3]; 14DAA1, 1.1 g ai/ha",28.8%
same,Diclosulam Mean % weed control,"[3]; 21DAA1, 1.1 g ai/ha",30.0%
same,Diclosulam Mean % weed control,"[4]; 8DAA1, 8.8 g ai/ha",51.3%
same,Diclosulam Mean % weed control,"[4]; 14DAA1, 4.4 g ai/ha",28.8%
same,Diclosulam Mean % weed control,"[4]; 14DAA1, 8.8 g ai/ha",27.5%
same,Diclosulam Mean % weed control,"[4]; 21DAA1, 4.4 g ai/ha",25.0%
same,Diclosulam Mean % weed control,"[4]; 21DAA1, 8.8 g ai/ha",28.8%
same,Diclosulam Mean % weed control,"[5]; 8DAA1, 8.8 g ai/ha",38.3%
same,Diclosulam Mean % weed control,"[5]; 14DAA1, 2.2 g ai/ha",3.3%
same,Diclosulam Mean % weed control,"[5]; 14DAA1, 8.8 g ai/ha",21.7%
same,Diclosulam Mean % weed control,"[5]; 21DAA1, 2.2 g ai/ha",5.0%
same,Diclosulam Mean % weed control,"[5]; 21DAA1, 4.4 g ai/ha",16.7%
same,Diclosulam Mean % weed control,"[5]; 21DAA1, 8.8 g ai/ha",31.7%
same,Diclosulam Mean % weed control,"[6]; 14DAA1, 25.2 g ai/ha",41.3%
same,Diclosulam Mean % weed control,"[6]; 26DAA1, 25.2 g ai/ha",17.5%
same,Diclosulam Mean % weed control,[7],23.3%
"COC(=O)c1sccc1S(=O)(=O)NC(=O)Nc1nc(C)nc(OC)n1 [Thifensulfuron-methyl, methyl 3-[[[[(4-methoxy-6-methyl-1,3,5-triazin-2-yl)amino]carbonyl]amino]sulfonyl]-2-thiophenecarboxylate]",Thifensulfuron-methyl Mean % weed control,[8],90.0%
same,Thifensulfuron-methyl Mean % weed control,[9],90.0%
same,Thifensulfuron-methyl Mean % weed control,[10],90.0%
same,Thifensulfuron-methyl Mean % weed control,"[11]; 14DAA1, 0.6 g ai/ha",56.3%
same,Thifensulfuron-methyl Mean % weed control,"[11]; 14DAA1, 1.1 g ai/ha",73.8%
same,Thifensulfuron-methyl Mean % weed control,[12],22.5%
"CCOc1nc(F)cc2nc(S(=O)(=O)Nc3c(Cl)cccc3C(=O)OC)nn12 [Cloransulam-methyl, methyl 3-chloro-2-[[(5-ethoxy-7-fluoro[1,2,4]triazolo[1,5-c]pyrimidin-2-yl)sulfonyl]amino]benzoate]",Cloransulam-methyl Mean % weed control,"[13]; 14DAA1, 1.1 g ai/ha",38.3%
same,Cloransulam-methyl Mean % weed control,"[13]; 14DAA1, 4.4 g ai/ha",70.0%
same,Cloransulam-methyl Mean % weed control,"[13]; 21DAA1, 1.1 g ai/ha",40.0%
same,Cloransulam-methyl Mean % weed control,"[13]; 21DAA1, 4.4 g ai/ha",70.0%
same,Cloransulam-methyl Mean % weed control,"[14]; 8DAA1, 4.4 g ai/ha",58.8%
same,Cloransulam-methyl Mean % weed control,"[14]; 14DAA1, 4.4 g ai/ha",38.8%
same,Cloransulam-methyl Mean % weed control,"[14]; 21DAA1, 4.4 g ai/ha",37.5%
same,Cloransulam-methyl Mean % weed control,"[15]; 8DAA1, 4.4 g ai/ha",35.0%
same,Cloransulam-methyl Mean % weed control,"[15]; 14DAA1, 1.1 g ai/ha",16.7%
same,Cloransulam-methyl Mean % weed control,"[15]; 14DAA1, 4.4 g ai/ha",11.7%
same,Cloransulam-methyl Mean % weed control,"[15]; 21DAA1, 1.1 g ai/ha",8.3%
same,Cloransulam-methyl Mean % weed control,"[15]; 21DAA1, 4.4 g ai/ha",11.0%
same,Cloransulam-methyl Mean % weed control,"[15]; 21DAA1, 8.8 g ai/ha",10.0%
